Laboratory results from patent US12473305B2, “Pyrazole boronic acid compound, pharmaceutical composition containing same, and uses thereof” (BEIJING SONGRUN PHARMACEUTICAL TECHNOLOGY CO., LTD., priority 2020, dated 2025).

What was measured:
[1] = molecular target: T1, 20S proteasome β5 subunit (Homo sapiens, UniProt P20618+P28074); assay: Proteasome-Glo Cell-Based assay in K562 cells, β5 subunit; conditions: 2 h incubation
T1 construct: endogenous in cells; host or cells: K562
Description: Proteasome-Glo™ Cell-Based assay kit (Promega, USA) was used to determine the activity of the target compound against the 20S proteasome. Human chronic myeloid leukemia cell line (K562, 6000 cells/well) was inoculated into the 384 well plate in 20 μL/well. The cells were then equilibrated at 37° C., 5% CO2 for 2 hours. Each 384 well plate was set with the mock group and treatment group, and each well of the treatment group was added with 5 μL of the compound solution with the final concentration of 40 μM, 13.3 μM, 4.44 μM, 1.48 μM, 0.49 μM, 0.16 μM, 0.055 μM, 0.0183 μM, […], 0.0061 μM. The cells was incubated with the drugs for 2 hours at 37° C., 5% CO2 before adding 25 μL of corresponding Proteasome-Glo™ Cell-Based reagent per well. The relative luminescence unit (RLU) was measured by using Multimode Microplate Reader Varioskan Flash (Thermo Scientific, USA) after 15 min and compared with the RLU of the control group. SigmaPlot 10.0 software was used to calculate IC50 value.

[2] = system: colorectal cancer cell line HCT116; assay: CellTiter-Glo tumor cell proliferation, HCT116; assay type: cell-based, human; conditions: Homo sapiens, HCT-116; CellTiter-Glo, 72 h
How it was run: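 Cells seeded at 2×10^4/mL, grown 24 h at 37° C, 5% CO2, then treated in triplicate with medium-diluted compound for 72 h. CellTiter-Glo luminescence read after 20 min at 37° C; inhibition versus untreated control RLU, IC50 calculated.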

[3] = system: human multiple myeloma RPMI 8226; assay: Pharmacodynamic study, RPMI 8226 subcutaneous xenograft; assay type: in vivo, female NOD/SCID mice; conditions: BIW, tail vein, day of the last administration; for Tumor volume (x ± S): in mm³ (unit assumed)
Description: The anti-tumor effect in vivo was studied by using the tumor animal model obtained by subcutaneous xenotransplantation of cell lines into female NOD/SCID mice (purchased from Sipeifu Biotechnology Co., Ltd.).
RPMI 8226 cells were subcutaneously inoculated into NOD/SCID mice, and human multiple myeloma subcutaneously transplanted tumor model was successfully established 9 days after inoculating the cells. The test was divided into vehicle (0.3 mL DMSO, 0.27 mL Tween-80, 2.43 mL normal saline) control group, compound 30 low-dose group (20 mg/kg), compound 30 medium-dose group (30 mg/kg), compound 30 high-dose group (40 mg/kg), compound 39 low-dose group (5 mg/kg), compound 39 medium-dose group (10 mg/kg), and compound 39 high-dose group (15 mg/kg), and bortezomib (API purchased from Yangtze River Pharmaceutical) was used as the positive control group (0.5 mg/kg); 5 tumor-bearing mice established above in each group were administered by tail vein twice a week for nine times in total. The long diameter a (mm) of the tumor and the short diameter b (mm) of the tumor perpendicular to the long diameter were measured with digital electronic caliper twice a week. The calculation formula of tumor volume was: TV=ab^2/2; and the calculation formula of relative tumor volume was: RTV=Vt/Vo, Vo was the tumor volume measured when the mice in each group were divided into cages and administered for the first time (d1), and Vt was the tumor volume measured at the last administration. The animals were sacrificed 31 days (d22) after inoculation of RPMI 8226 cells, and weighed. The tumor mass was dissected and weighed, and the tumor inhibition rate was calculated according to the following formula: […]

MCF-7 = assay: MTT antitumor spectrum, MCF-7; assay type: cell-based; conditions: Homo sapiens, MCF7, 72 h
Description: (§1) The activity of compound 30 was evaluated by MTT method against seven tumor cell models, A549, A375, HCT116, MDA-MB-231, HepG2, PC3 and MCF-7. All cells used in the study were prepared at a concentration of 3.5×10^3 cells/mL, and each […] cell suspension was inoculated on a 96-well microtiter plate for 24 hours (37° C., 5% CO2). Then different concentrations of compound 30 were added, incubated for 72 hours; and for the control group, equivalent concentrations of DMSO (final concentration 0.5%) were added. The number of viable cells was measured by MTT (3-(4,5-dimethylthiazol-2-yl)-diphenyl tetrazolium bromide) method, and the OD value at 492/620 nm was recorded. The IC50 value was calculated by Prism-Graphpad software based on the results of triplicate experiments.

A375 = assay: MTT antitumor spectrum, A375; assay type: cell-based; conditions: Homo sapiens, A-375, 72 h
Description: as §1

HCT116 = assay: MTT antitumor spectrum, HCT116; assay type: cell-based; conditions: Homo sapiens, HCT-116, 72 h
Description: as §1

HepG2 = assay: MTT antitumor spectrum, HepG2; assay type: cell-based; conditions: Homo sapiens, 72 h
Description: as §1

## CC(C)C[C@H](NC(=O)Cn1nc(-c2cccc(OCCN3CCN(c4ccccc4)CC3)c2)cc1-c1ccccc1)B(O)O.Cl [Compound 39, (R)-(3-methyl-1-(2-(5-phenyl-3-(3-(2-(4-phenylpiperazin-1-yl)ethoxy)phenyl)-1H-pyrazol-1-yl)acetamido)butyl)boronic acid hydrochloride]
[1]
  IC50: 200 nM
[2]
  IC50: 84 nM
[3]; 5 mg/kg
  Relative tumor volume (x ± S): 1.51 ± 0.38
  T/C (%): 16.18%
  TGI (%): 83.82%
  Tumor volume (x ± S): 177.55 ± 51.28
[3]; 10 mg/kg
  Relative tumor volume (x ± S): 0.62 ± 0.28
  T/C (%): 6.65%
  TGI (%): 93.35%
  Tumor volume (x ± S): 75.06 ± 19.64
[3]; 15 mg/kg
  Relative tumor volume (x ± S): 0.36 ± 0.02
  T/C (%): 3.86%
  TGI (%): 96.14%
  Tumor volume (x ± S): 21.79 ± 3.50

## CC(C)C[C@H](NC(=O)Cn1nc(-c2cccc(OCCN3CCOCC3)c2)cc1-c1ccccc1)B(O)O.Cl [Compound 30, (R)-(3-methyl-1-(2-(3-(3-(2-morpholinoethoxy)phenyl)-5-phenyl-1H-pyrazol-1-yl)-acetamido)butyl)boronic acid hydrochloride]
[1]
  IC50: 400 nM
MCF-7
  IC50: 690 nM
[2]
  IC50: 630 nM
A375
  IC50: 820 nM
HCT116
  IC50: 630 nM
HepG2
  IC50: 1080 nM
[3]; 20 mg/kg
  Relative tumor volume (x ± S): 2.57 ± 0.61
  T/C (%): 27.55%
  TGI (%): 72.45%
  Tumor volume (x ± S): 267.27 ± 77.46
[3]; 30 mg/kg
  Relative tumor volume (x ± S): 1.63 ± 0.32
  T/C (%): 17.47%
  TGI (%): 82.53%
  Tumor volume (x ± S): 147.56 ± 33.02
[3]; 40 mg/kg
  Relative tumor volume (x ± S): 0.74 ± 0.12
  T/C (%): 7.93%
  TGI (%): 92.07%
  Tumor volume (x ± S): 72.06 ± 13.62
